The target of experiment [1] is T1, Rat mGlu2 (Rattus norvegicus, UniProt P31421).
T1 construct: expressed in transfected cells; host or cells: HEK-293 co-expressing GIRK channels
In words: mGlu receptor in vitro assay, thallium flux through GIRK channels, rat mGlu2. Format: cell-based. Particulars: PAM potency with EC20 glutamate. On the procedure:
(§1) Human Embryonic Kidney (HEK-293) cell lines co-expressing rat mGlu receptors 2, 3, 4, 6, 7 or 8 and G protein-coupled inwardly-rectifying potassium (GIRK) channels were grown in Growth Media containing 45% DMEM, 45% F-12, 10% FBS, 20 mM HEPES, 2 mM L-glutamine, antibiotic/antimycotic, non-essential amino acids, 700 μg/mL G418, and 0.6 μg/ml puromycin at 37° C. in the presence of 5% CO2. […] All cell culture reagents were purchased from Invitrogen Corp. (Carlsbad, CA) unless otherwise noted. Calcium assays were used to assess activity of compounds at mGlu1 and mGlu5, as previously described in Engers et al (J. Med. Chem. 2009, 52, 4115-4118). Calcium assays at mGlu3 were performed as described for mGlu5 with the exception that TREx293 mGlu3 Gα15 cells were treated with tetracycline at 20 ng/mL for 20 h prior to assay.
(§2) Compound activity at the group II (mGlu2 and mGlu3) and group III (mGlu4, mGlu6, mGlu7, and mGlu8) was assessed using thallium flux through GIRK channels, a method that has been described in detail. Briefly, cells were plated into 384-well, black-walled, clear-bottomed poly-D-lysine-coated plates at a density of 15,000 cells/20 μL/well in DMEM containing 10% dialyzed FBS, 20 mM HEPES, and 100 units/mL penicillin/streptomycin (assay media). Plated cells were incubated overnight at 37° C. in the presence of 5% CO2. The following day, the medium was exchanged from the cells to assay buffer [Hanks' balanced salt solution (Invitrogen) containing 20 mM HEPES, pH 7.3] using an ELX405 microplate washer (BioTek), leaving 20 μL/well, followed by the addition of 20 μL/well FluoZin2-AM (330 nM final concentration) indicator dye (Invitrogen; prepared as a stock in DMSO and mixed in a 1:1 ratio with Pluronic acid F-127) in assay buffer. Cells were incubated for 1 h at room temperature, and the dye exchanged to assay buffer using an ELX405, leaving 20 μL/well. Test compounds were diluted to 2 times their final desired concentration in assay buffer (0.3% DMSO final concentration). Agonists were diluted in thallium buffer [125 mM sodium bicarbonate (added fresh the morning of the experiment), 1 mM magnesium sulfate, 1.8 mM calcium sulfate, 5 mM glucose, 12 mM thallium sulfate, and 10 mM HEPES, pH 7.3] at 5 times the final concentration to be assayed. Cell plates and compound plates were loaded onto a kinetic imaging plate reader (FDSS 6000 or 7000; Hamamatsu Corporation, Bridgewater, NJ). Appropriate baseline readings were taken (10 images at 1 Hz; excitation, 470±20 nm; emission, 540±30 nm) and test compounds were added in a 20 μL volume and incubated for approximately 2.5 min before the addition of 10 μL of thallium buffer with or without agonist. After the addition of agonist, data were collected for approximately an additional 2.5 min. Data were analyzed using Excel (Microsoft Corp, Redmond, WA). The slope of the fluorescence increase beginning 5 s after thallium/agonist addition and ending 15 s after thallium/agonist addition was calculated, corrected to vehicle and maximal agonist control slope values, and plotted in using either XLfit (ID Business Solutions Ltd) or Prism software (GraphPad Software, San Diego, CA) to generate concentration-response curves. Potencies were calculated from fits using a four-point parameter logistic equation. For concentration-response curve experiments, compounds were serially diluted 1:3 into 10-point concentration response curves and were transferred to daughter plates using an Echo acoustic plate reformatter (Labcyte, Sunnyvale, CA). Test compounds were applied and followed by EC20 concentrations of glutamate.

Experiment [2] addresses T2, Rat mGlu3 (Rattus norvegicus, UniProt P31422).
T2 construct: expressed in transfected cells; host or cells: HEK-293 co-expressing GIRK channels
The experiment is described as follows: mGlu receptor in vitro assay (thallium flux through GIRK channels / calcium assay), rat mGlu3. Format: cell-based. The settings on record: PAM potency with EC20 glutamate. As to the method:
as §1, §2

T1 sequence (P31421 19-872): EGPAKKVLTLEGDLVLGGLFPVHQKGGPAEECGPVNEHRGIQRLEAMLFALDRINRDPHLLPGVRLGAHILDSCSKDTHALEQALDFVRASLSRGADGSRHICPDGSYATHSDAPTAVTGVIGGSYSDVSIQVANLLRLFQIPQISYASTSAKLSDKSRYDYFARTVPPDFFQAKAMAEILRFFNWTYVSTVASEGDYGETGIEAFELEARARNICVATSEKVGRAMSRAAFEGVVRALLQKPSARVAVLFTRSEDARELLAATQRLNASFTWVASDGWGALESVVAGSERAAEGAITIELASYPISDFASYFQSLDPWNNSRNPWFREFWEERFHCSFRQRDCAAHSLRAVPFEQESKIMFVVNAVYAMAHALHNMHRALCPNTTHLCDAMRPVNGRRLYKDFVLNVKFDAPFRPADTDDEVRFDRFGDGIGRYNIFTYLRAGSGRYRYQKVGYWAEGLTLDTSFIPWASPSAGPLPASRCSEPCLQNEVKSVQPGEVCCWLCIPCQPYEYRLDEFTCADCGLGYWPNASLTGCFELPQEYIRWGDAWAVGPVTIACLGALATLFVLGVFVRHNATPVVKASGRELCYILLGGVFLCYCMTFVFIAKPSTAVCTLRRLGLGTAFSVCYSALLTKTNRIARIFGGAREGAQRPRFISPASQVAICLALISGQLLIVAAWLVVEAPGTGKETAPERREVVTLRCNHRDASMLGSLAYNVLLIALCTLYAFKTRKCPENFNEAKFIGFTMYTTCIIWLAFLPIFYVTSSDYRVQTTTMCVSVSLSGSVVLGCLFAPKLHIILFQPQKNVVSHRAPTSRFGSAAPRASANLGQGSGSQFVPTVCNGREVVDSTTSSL
T2 sequence (P31422 23-879): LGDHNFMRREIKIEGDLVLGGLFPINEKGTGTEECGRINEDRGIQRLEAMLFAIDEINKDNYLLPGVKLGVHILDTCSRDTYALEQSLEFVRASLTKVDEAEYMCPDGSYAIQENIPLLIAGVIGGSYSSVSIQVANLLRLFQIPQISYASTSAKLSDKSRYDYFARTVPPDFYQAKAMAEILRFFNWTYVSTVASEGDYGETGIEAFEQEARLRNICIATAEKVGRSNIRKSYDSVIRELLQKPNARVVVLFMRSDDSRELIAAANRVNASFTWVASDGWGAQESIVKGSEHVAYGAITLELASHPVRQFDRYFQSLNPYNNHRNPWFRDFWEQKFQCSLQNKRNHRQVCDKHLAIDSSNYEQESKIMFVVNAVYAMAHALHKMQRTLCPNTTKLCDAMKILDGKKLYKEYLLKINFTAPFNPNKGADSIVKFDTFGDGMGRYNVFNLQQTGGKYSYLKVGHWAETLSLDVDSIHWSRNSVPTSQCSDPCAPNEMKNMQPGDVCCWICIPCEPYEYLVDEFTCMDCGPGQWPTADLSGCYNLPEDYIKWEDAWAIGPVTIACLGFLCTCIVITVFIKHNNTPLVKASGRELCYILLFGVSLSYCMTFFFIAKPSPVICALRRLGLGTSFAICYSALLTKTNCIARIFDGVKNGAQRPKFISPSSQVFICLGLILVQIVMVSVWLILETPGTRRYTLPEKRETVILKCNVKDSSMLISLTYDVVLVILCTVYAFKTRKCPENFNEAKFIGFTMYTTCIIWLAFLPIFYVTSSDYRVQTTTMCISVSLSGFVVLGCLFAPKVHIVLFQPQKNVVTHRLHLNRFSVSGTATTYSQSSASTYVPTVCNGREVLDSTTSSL

As a reminder, the EC50 is the concentration needed to bring the measured effect to its halfway point. Consider `COc1ccc(C(=O)O)cc1OCC(C)CCOc1ccc(C(=O)CC(C)(C)C)c(O)c1C` (stereo not drawn) [Example 32, 3-{4-[4-(3,3-Dimethylbutanoyl)-3-hydroxy-2-methylphenoxy]-2-methylbutoxy}-4-methoxybenzoic acid], for which the concentration giving a half-maximal response (EC50) in experiment [1] is 0.127 µM; in experiment [2], 0.2 µM.

Turning to `Cc1c(OCCCCCOc2ccc(F)c(C(=O)O)c2)ccc(C(=O)CC(C)C)c1O` [Example 47, 2-Fluoro-5-{5-[3-hydroxy-2-methyl-4-(3-methylbutanoyl)phenoxy]pentyloxy}benzoic acid], the figures for the EC50 in experiment [1] and in experiment [2] were 0.113 µM and 2.04 µM, respectively.

For the compound `Cc1c(OCc2cccc(-c3cccc(C(=O)O)c3)c2)ccc(C(=O)c2ccccc2)c1O` [compound 66, 3′-((4-Benzoyl-3-hydroxy-2-methylphenoxy)methyl)-[1,1′-biphenyl]-3-carboxylic acid], the EC50 worked out at 0.769 µM in experiment [1] and 2.28 µM in experiment [2].

As to `Cc1c(OCc2cnc(-c3cccc(-c4nsc(=O)[nH]4)c3)cn2)ccc(C(=O)CC(C)(C)C)c1O` [compound 125, 3-(3-(5-((4-(3,3-Dimethylbutanoyl)-3-hydroxy-2-methylphenoxy)methyl)pyrazin-2-yl)phenyl)-1,2,4-thiadiazol-5(4H)-one], the values for the EC50 in experiment [1] and in experiment [2] were more than 10 µM and more than 30 µM, respectively.

In the case of `CCCC(=O)c1ccc(OCC#CCOc2ccc(C(=O)O)cc2OC)c(C)c1O` [Example 34, 4-[4-(4-Butanoyl-3-hydroxy-2-methylphenoxy)but-2-ynyloxy]-3-methoxybenzoic acid], the results for the EC50 in experiment [1] and in experiment [2] were 0.031 µM and 1.9 µM, respectively.

For the compound `Cc1c(OCc2cnc(-c3cccc(S(N)(=O)=O)c3)cn2)ccc(C(=O)CC(C)(C)C)c1O` [compound 117, 3-(5-((4-(3,3-Dimethylbutanoyl)-3-hydroxy-2-methylphenoxy)methyl)pyrazin-2-yl)benzenesulfonamide], the EC50 in experiment [1] and in experiment [2] was more than 30 µM throughout.

Consider `COc1ccc(C(=O)O)cc1OCCCCOc1ccc(C(=O)C(C)(C)C)c(O)c1C` [compound 105, 3-(4-(3-Hydroxy-2-methyl-4-pivaloylphenoxy)butoxy)-4-methoxybenzoic acid], for which the values for the EC50 in experiment [1] and in experiment [2] were 0.288 µM and 0.743 µM, respectively.

For `Cc1c(OC/C=C/COc2ccc(C(=O)CC(C)(C)C)c(O)c2C)cccc1C(=O)O` [Example 21, 3-{(2E)-4-[4-(3,3-Dimethylbutanoyl)-3-hydroxy-2-methylphenoxy]but-2-enyloxy}-2-methylbenzoic acid], the EC50 worked out at 0.038 µM in experiment [1] and 0.073 µM in experiment [2].

Turning to `CCCC(=O)c1ccc(OCC[S+]([O-])CCOc2ccc(C(=O)O)c(Cl)c2)c(C)c1O` (stereo not drawn) [Example 40, 4-(2-{[2-(4-Butanoyl-3-hydroxy-2-methylphenoxy)ethyl]sulfinyl}ethoxy)-2-chlorobenzoic acid], the EC50 in experiment [1] is 0.591 µM; in experiment [2], more than 30 µM.

Turning to `COc1ccc(C(=O)O)cc1OCCCOc1ccc(C(=O)CC(C)(C)C)c(O)c1C` [compound 92, 3-{3-[4-(3,3-Dimethylbutanoyl)-3-hydroxy-2-methylphenoxy]propoxy}-4-methoxybenzoic acid], the results for the EC50 in experiment [1] and in experiment [2] were 0.057 µM and 0.234 µM, respectively.

With `Cc1c(OCc2cnc(-c3cccc(C(=O)O)c3)cn2)ccc(C(=O)Cc2ccccc2)c1O` [compound 121, 3-(5-((3-Hydroxy-2-methyl-4-(2-phenylacetyl)phenoxy)methyl)pyrazin-2-yl)benzoic acid], the EC50 is 0.782 µM in experiment [1] and 0.593 µM in experiment [2].

Regarding `CCCC(=O)c1ccc(OCCCCCOc2cnc(C)c(C(=O)O)c2)c(C)c1O` [compound 108, 5-[5-(4-Butanoyl-3-hydroxy-2-methylphenoxy)pentyloxy]-2-methylpyridine-3-carboxylic acid], the EC50 in experiment [1] is 0.11 µM; in experiment [2] it was more than 30 µM.

On to `Cc1c(OCCCCCOc2cccc(C(=O)O)c2C)cccc1C(=O)O` [compound 98, 3-[5-(3-Carboxy-2-methylphenoxy)pentyloxy]-2-methylbenzoic acid], for which the figures for the EC50 in experiment [1] and in experiment [2] were more than 10 µM and more than 30 µM, respectively.

With `Cc1nc(-c2cccc(-c3cnc(COc4ccc(C(=O)CC(C)(C)C)c(O)c4C)cn3)c2)no1` [compound 86, 1-(2-Hydroxy-3-methyl-4-((5-(3-(5-methyl-1,2,4-oxadiazol-3-yl)phenyl)pyrazin-2-yl)methoxy)phenyl)-3,3-dimethylbutan-1-one], the EC50 is more than 30 µM in experiment [1] and more than 10 µM in experiment [2].

Consider `CCCC(=O)c1ccc(OCCS(=O)(=O)CCOc2cccc(C(=O)O)c2C)c(C)c1O` [Example 38, 3-(2-{[2-(4-Butanoyl-3-hydroxy-2-methylphenoxy)ethyl]sulfonyl}ethoxy)-2-methylbenzoic acid], for which the EC50 in experiment [1] was more than 10 µM; in experiment [2], more than 30 µM.

Regarding `CCCC(=O)c1ccc(OCC(=O)c2cccc(-c3cccc(C(=O)O)c3C)c2)c(C)c1O` [compound 99, 3-{3-[2-(4-Butanoyl-3-hydroxy-2-methylphenoxy)acetyl]phenyl}-2-methylbenzoic acid], the EC50 in experiment [1] is 0.167 µM; in experiment [2] it was more than 30 µM.

With `CCCC(=O)c1ccc(OCC#CCOc2ccc(C(=O)O)c(Cl)c2)c(C)c1O` [Example 43, 4-[4-(4-Butanoyl-3-hydroxy-2-methylphenoxy)but-2-ynyloxy]-2-chlorobenzoic acid], the EC50 in experiment [1] was 0.033 µM; in experiment [2], more than 10 µM.

`CCCC(=O)c1ccc(OCCSCCOc2ccc(C(=O)O)cc2OC)c(C)c1O` [Example 15, 4-{2-[2-(4-Butanoyl-3-hydroxy-2-methylphenoxy)ethylthio]ethoxy}-3-methoxybenzoic acid]: the EC50 in experiment [1] was 0.018 µM; in experiment [2], more than 30 µM.

With `Cc1c(OCc2cnc(-c3cccc(C(=O)O)c3)cn2)ccc(C(=O)C(C)(C)C)c1O` [compound 110, 3-(5-((3-Hydroxy-2-methyl-4-pivaloylphenoxy)methyl)pyrazin-2-yl)benzoic acid], the EC50 in experiment [1] was determined as 1.04 µM; in experiment [2] it was 0.327 µM.

For the compound `Cc1c(OCc2cnc(-c3cccc(-c4noc(=O)[nH]4)c3)cn2)ccc(C(=O)CC(C)(C)C)c1O` [compound 124, 3-(3-(5-((4-(3,3-Dimethylbutanoyl)-3-hydroxy-2-methylphenoxy)methyl)pyrazin-2-yl)phenyl)-1,2,4-oxadiazol-5(4H)-one], the EC50 in experiment [1] came to 2.48 µM; in experiment [2] it was 1.69 µM.

Consider `CCCC(=O)c1ccc(OCC[S+]([O-])CCOc2cccc(C(=O)O)c2C)c(C)c1O` (stereo not drawn) [Example 39, 3-(2-{[2-(4-Butanoyl-3-hydroxy-2-methylphenoxy)ethyl]sulfinyl}ethoxy)-2-methylbenzoic acid], for which the EC50 is more than 10 µM in experiment [1] and more than 30 µM in experiment [2].

Regarding `COc1c(C(=O)O)cccc1-c1cnc(COc2ccc(C(=O)CC(C)(C)C)c(O)c2C)cn1` [compound 136, 3-(5-((4-(3,3-Dimethylbutanoyl)-3-hydroxy-2-methylphenoxy)methyl)pyrazin-2-yl)-2-methoxybenzoic acid], the EC50 in experiment [1] amounted to 0.129 µM; in experiment [2], 0.053 µM.

For `Cc1c(SCc2cccc(-c3cccc(C(=O)O)c3)c2)ccc(C(=O)CC(C)(C)C)c1O` [Example 165, 3′-(((4-(3,3-Dimethylbutanoyl)-3-hydroxy-2-methylphenyl)thio)methyl)-[1,1′-biphenyl]-3-carboxylic acid], the concentration giving a half-maximal response (EC50) in experiment [1] stood at 0.337 µM; in experiment [2] it was 2.53 µM.

On to `CCCC(=O)c1ccc(OCCCCCCOc2cccc(C(=O)O)c2C)c(C)c1O` [Example 55, 3-[6-(4-Butanoyl-3-hydroxy-2-methylphenoxy)hexyloxy]-2-methylbenzoic acid], for which the EC50 in experiment [1] was 0.182 µM; in experiment [2], 1.17 µM.

The values above are taken from patent US20250179000A1 (Sanford Burnham Prebys Medical Discovery Institute, priority 2021, published 2025).
